Results published in ChEMBL document CHEMBL5653631, “A Potent and Selective ULK1 Inhibitor Suppresses Autophagy and Sensitizes Cancer Cells to Nutrient Stress” (iScience, 2018).

Legend:
[1] = target: BDNF/NT-3 growth factors receptor (Homo sapiens) (UniProt Q16620); assay: Inhibition of human recombinant TRKB at 500 nM related to control ULK1
[2] = target: Protein kinase C gamma type (Homo sapiens) (UniProt P05129); assay: Inhibition of human recombinant PKCg at 500 nM in presence of ATP by radiometric assay relative to control
[3] = target: Tyrosine-protein kinase Lck (Homo sapiens) (UniProt P06239); assay: Inhibition of human recombinant LCK at 500 nM in presence of ATP by radiometric assay relative to control
Tyrosine-protein kinase Lck (Homo sapiens), sequence (P06239 2-509 limits assumed): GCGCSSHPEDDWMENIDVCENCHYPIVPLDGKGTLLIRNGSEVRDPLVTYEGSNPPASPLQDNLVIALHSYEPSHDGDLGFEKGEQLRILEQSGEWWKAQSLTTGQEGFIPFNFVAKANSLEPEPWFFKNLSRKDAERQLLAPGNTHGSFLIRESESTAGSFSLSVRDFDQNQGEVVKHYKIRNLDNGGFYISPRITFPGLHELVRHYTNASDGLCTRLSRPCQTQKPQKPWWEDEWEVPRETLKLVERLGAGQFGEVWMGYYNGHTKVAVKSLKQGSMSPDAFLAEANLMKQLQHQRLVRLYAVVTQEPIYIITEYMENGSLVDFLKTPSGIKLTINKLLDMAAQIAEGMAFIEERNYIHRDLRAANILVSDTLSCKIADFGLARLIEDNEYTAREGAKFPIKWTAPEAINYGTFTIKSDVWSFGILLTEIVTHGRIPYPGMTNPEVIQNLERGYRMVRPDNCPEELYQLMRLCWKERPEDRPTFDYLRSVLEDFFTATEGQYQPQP

[4] = target: Interleukin-1 receptor-associated kinase 1 (Homo sapiens) (UniProt P51617); assay: Inhibition of human recombinant IRAK1 at 500 nM related to control ULK1
[5] = target: Serine/threonine-protein kinase VRK2 (Homo sapiens) (UniProt Q86Y07); assay: Inhibition of human recombinant VRK2 at 500 nM related to control ULK1
[6] = target: Mitogen-activated protein kinase kinase kinase 10 (Homo sapiens) (UniProt Q02779); assay: Inhibition of human recombinant MLK2 at 500 nM in presence of ATP by radiometric assay relative to control
[7] = target: Serine/threonine-protein kinase N1 (Homo sapiens) (UniProt Q16512); assay: Inhibition of human recombinant PKN1 at 15 nM related to control ULK1
[8] = target: Serine/threonine-protein kinase Nek6 (Homo sapiens) (UniProt Q9HC98); assay: Inhibition of human recombinant NEK6 at 15 nM related to control ULK1
Serine/threonine-protein kinase Nek6 (Homo sapiens), sequence (Q9HC98 whole entry): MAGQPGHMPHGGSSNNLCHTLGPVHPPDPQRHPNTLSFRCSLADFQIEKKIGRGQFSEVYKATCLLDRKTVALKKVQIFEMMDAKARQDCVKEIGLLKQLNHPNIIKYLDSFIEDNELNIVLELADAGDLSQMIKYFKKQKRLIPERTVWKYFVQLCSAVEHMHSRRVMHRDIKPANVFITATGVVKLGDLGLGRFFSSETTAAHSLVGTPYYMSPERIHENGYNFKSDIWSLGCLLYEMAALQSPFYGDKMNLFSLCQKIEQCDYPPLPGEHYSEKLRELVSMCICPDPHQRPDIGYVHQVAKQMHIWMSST

[9] = target: Receptor tyrosine-protein kinase erbB-2 (Homo sapiens) (UniProt P04626); assay: Inhibition of human recombinant ErbB2 at 15 nM in presence of ATP by radiometric assay relative to control
Receptor tyrosine-protein kinase erbB-2 (Homo sapiens), sequence (P04626 whole entry): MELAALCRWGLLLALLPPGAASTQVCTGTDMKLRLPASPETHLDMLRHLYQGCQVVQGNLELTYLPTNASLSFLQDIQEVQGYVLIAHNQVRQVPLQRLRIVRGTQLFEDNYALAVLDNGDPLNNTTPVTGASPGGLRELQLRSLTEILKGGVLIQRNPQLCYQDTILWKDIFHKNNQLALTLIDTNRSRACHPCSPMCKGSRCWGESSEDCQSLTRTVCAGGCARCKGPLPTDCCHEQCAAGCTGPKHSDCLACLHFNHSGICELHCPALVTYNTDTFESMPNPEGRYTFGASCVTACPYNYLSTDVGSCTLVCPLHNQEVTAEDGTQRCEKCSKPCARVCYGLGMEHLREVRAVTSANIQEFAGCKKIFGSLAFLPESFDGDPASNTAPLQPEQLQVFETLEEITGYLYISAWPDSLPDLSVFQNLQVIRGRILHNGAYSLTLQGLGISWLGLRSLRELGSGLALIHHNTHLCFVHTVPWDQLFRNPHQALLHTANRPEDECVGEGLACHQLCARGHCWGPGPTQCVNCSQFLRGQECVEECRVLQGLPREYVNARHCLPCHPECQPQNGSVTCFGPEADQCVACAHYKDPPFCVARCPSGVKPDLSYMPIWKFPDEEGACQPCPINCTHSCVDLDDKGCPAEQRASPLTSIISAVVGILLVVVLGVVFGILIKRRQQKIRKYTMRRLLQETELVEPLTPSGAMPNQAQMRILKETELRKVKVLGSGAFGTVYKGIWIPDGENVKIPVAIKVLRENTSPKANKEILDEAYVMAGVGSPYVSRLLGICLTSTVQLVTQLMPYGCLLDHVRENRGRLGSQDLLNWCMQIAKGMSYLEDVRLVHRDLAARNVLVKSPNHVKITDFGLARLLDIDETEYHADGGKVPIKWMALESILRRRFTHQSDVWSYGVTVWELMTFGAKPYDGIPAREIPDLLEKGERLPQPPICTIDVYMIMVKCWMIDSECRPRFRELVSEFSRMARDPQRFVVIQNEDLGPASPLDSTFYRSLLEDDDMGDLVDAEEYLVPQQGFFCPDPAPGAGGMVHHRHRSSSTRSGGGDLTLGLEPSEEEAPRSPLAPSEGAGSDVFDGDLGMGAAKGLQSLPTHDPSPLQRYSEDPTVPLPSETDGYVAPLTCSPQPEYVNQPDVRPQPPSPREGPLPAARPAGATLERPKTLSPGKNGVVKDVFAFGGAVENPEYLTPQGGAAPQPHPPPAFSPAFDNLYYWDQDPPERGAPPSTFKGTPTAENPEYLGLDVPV

[10] = target: T1, Serine/threonine-protein kinase 3 (Homo sapiens) (UniProt Q13188); assay: Inhibition of human recombinant MST2 at 15 nM in presence of ATP by radiometric assay relative to control
T1 sequence (whole entry): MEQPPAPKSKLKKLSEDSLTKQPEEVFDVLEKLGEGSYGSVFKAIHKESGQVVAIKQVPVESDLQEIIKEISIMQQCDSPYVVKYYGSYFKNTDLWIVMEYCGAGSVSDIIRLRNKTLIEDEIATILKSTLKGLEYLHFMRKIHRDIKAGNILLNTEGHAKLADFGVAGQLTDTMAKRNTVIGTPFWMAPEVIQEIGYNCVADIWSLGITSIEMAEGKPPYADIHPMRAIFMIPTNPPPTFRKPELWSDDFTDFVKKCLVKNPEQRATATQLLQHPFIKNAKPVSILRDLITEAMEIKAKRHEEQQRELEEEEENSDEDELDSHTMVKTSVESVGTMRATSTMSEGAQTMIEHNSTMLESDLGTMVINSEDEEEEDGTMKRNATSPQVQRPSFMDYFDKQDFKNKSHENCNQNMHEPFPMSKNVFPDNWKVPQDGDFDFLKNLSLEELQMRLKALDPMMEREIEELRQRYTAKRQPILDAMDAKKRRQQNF

[11] = target: Serine/threonine-protein kinase/endoribonuclease IRE1 (Homo sapiens) (UniProt O75460); assay: Inhibition of human recombinant IRE1 at 15 nM in presence of ATP by radiometric assay relative to control
Serine/threonine-protein kinase/endoribonuclease IRE1 (Homo sapiens), sequence (O75460 19-977 limits assumed): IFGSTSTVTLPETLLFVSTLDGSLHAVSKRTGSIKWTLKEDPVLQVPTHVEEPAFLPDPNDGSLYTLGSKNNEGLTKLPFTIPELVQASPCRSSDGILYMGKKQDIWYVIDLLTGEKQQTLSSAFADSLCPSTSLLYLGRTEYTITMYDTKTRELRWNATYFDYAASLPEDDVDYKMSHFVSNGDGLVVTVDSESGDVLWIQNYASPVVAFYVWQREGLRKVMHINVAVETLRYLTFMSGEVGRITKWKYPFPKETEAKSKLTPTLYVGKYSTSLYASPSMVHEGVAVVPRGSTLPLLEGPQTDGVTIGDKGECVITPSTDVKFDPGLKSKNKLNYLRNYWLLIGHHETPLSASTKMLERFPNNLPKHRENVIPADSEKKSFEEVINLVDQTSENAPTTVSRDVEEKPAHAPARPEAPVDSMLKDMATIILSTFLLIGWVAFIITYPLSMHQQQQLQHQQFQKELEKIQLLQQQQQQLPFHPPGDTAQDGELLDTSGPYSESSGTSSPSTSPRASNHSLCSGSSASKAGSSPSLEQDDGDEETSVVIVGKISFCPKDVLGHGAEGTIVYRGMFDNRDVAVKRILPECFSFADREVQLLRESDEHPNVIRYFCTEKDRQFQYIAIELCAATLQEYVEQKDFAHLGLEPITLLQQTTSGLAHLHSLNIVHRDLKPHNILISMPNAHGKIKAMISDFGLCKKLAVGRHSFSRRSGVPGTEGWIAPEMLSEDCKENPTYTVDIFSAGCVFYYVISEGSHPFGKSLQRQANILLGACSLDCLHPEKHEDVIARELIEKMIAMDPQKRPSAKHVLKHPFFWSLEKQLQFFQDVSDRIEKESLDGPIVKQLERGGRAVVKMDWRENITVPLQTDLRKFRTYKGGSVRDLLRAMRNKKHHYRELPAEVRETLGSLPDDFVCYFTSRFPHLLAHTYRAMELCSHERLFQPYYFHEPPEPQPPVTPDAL

[12] = target: SRSF protein kinase 3 (Homo sapiens) (UniProt Q9UPE1); assay: Inhibition of human recombinant MSSK1 at 15 nM related to control ULK1
[13] = target: T2, Bone morphogenetic protein receptor type-2 (Homo sapiens) (UniProt Q13873); assay: Inhibition of human recombinant BMPR2 at 40 nM in presence of ATP by radiometric assay relative to control
T2 sequence (whole entry): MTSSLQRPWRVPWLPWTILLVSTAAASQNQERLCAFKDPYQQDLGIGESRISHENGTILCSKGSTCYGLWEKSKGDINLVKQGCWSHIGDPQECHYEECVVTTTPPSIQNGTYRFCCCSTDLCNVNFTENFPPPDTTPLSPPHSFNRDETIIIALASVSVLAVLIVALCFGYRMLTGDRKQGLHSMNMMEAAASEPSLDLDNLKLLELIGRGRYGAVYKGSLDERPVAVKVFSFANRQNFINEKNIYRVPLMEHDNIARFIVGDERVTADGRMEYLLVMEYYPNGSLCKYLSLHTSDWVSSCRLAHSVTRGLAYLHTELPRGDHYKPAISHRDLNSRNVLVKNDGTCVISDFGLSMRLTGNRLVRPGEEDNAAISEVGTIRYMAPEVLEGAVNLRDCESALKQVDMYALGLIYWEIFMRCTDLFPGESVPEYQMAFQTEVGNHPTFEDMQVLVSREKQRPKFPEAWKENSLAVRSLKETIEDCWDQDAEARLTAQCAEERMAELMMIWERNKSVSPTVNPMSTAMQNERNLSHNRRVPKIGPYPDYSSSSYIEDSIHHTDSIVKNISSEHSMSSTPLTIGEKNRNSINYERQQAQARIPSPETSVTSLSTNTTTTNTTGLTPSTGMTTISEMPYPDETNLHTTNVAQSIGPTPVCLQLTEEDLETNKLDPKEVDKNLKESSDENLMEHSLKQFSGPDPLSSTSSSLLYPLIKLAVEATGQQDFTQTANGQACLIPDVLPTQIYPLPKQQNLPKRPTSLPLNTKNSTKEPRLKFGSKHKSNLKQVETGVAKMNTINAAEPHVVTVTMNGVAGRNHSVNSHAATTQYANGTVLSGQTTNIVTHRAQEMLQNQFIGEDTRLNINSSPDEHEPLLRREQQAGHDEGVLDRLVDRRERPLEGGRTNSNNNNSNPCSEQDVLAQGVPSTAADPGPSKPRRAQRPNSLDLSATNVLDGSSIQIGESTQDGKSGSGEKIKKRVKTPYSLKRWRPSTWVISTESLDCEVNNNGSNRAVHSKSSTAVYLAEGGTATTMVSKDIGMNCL

[14] = target: T3, Mitogen-activated protein kinase 13 (Homo sapiens) (UniProt O15264); assay: Inhibition of human recombinant p38delta at 40 nM related to control ULK1
T3 sequence (whole entry): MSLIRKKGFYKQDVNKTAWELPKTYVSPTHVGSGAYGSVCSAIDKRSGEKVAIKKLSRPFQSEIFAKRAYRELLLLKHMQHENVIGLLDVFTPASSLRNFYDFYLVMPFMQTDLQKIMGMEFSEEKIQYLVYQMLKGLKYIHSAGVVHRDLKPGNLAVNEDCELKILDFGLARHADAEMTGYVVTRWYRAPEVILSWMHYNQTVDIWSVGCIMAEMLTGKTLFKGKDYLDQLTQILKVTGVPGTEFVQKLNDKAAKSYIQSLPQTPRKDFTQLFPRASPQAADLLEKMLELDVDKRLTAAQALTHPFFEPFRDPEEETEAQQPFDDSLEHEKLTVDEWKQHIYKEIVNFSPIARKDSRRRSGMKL

[15] = target: Ribosomal protein S6 kinase alpha-5 (Homo sapiens) (UniProt O75582); assay: Inhibition of human recombinant MSK1 at 40 nM related to control ULK1
Ribosomal protein S6 kinase alpha-5 (Homo sapiens), sequence (O75582 whole entry, looked up): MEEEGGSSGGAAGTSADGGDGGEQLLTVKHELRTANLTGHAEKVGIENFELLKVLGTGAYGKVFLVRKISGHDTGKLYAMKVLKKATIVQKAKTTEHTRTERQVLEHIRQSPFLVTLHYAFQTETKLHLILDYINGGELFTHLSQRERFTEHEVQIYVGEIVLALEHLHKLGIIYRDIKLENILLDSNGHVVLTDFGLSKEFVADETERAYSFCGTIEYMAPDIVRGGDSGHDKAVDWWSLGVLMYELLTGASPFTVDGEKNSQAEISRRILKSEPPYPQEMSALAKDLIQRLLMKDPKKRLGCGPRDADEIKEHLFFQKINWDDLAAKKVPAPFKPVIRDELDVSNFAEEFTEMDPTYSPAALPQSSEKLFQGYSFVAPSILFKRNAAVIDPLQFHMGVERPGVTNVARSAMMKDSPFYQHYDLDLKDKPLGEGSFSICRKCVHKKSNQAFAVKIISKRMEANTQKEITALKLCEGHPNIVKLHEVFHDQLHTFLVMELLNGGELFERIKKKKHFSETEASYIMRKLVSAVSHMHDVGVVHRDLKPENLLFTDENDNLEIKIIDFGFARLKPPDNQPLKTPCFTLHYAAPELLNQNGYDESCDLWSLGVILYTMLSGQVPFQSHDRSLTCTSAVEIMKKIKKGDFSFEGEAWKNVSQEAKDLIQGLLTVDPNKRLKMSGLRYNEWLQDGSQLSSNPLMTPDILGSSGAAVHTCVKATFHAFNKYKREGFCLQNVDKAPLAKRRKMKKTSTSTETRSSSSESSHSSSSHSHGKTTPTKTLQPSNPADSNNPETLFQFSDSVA

BDNF/NT-3 growth factors receptor (Homo sapiens), sequence (Q16620 32-822 limits assumed): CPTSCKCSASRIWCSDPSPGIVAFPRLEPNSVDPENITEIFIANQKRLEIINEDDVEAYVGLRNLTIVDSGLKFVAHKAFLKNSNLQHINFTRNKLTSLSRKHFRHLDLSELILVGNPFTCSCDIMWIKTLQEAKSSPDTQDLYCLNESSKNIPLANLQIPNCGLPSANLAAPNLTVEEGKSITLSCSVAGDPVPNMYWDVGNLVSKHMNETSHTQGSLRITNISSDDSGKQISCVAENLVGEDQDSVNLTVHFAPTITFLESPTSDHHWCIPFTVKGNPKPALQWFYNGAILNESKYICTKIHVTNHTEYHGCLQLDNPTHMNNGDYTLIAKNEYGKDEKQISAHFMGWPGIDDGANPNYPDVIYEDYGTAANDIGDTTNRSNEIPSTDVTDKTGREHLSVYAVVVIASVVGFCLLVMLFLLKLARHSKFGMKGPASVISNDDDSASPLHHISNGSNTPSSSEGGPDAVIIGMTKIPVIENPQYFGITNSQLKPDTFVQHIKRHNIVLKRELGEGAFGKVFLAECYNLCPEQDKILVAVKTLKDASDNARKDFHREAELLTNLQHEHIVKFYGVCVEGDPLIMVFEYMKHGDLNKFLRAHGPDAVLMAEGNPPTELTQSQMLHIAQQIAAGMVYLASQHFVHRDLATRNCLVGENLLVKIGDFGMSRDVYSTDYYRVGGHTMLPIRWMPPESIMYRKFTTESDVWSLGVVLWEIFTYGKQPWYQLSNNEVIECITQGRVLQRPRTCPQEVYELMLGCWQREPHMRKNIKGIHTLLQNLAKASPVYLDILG

Structure (SMILES): CNC(=O)c1ccccc1Oc1nc(Nc2cc(OC)c(OC)c(OC)c2)ncc1Br
- fold change (FC) [1]: 0.65
- inhibition [2]: 9%
- inhibition [3]: 13%
- fold change (FC) [4]: 0.2
- fold change (FC) [5]: 0.31
- inhibition [6]: 70%

Structure (SMILES): CC(C)[C@H](NC(=O)c1cc(-c2cnn3cc(-c4ccc(OCCN5CCCCC5)cc4)cnc23)cs1)C(F)(F)F
- fold change (FC) [7]: 0
- fold change (FC) [8]: 0.01
- inhibition [9]: 0%
- inhibition [10]: 3%
- inhibition [11]: 0%
- fold change (FC) [12]: 0

Structure (SMILES): O=C(N[C@@H](C1CC1)C(F)(F)F)c1cc(-c2cnn3cc(-c4ccc(F)cc4)cnc23)cs1
- inhibition [13]: 6%
- fold change (FC) [14]: 0.16
- fold change (FC) [15]: 0
